Source: patent publication US10201546B2, “Quinolinyl modulators of RORγt” (Janssen Pharmaceutica NV, priority 2013, dated 2019)
Counter-ions that a name gives are not always drawn. Like-named read-outs stand apart in the source and are kept apart here. Values belong to the compound of their own block, whether it stands above or below them.

Key:
[1] = test system: IL-17 production by CD4+ T cells under conditions which favor Th17 differentiation; experiment: Human Th17 assay (IL-17 production by CD4 T cells); format: cell-based
[2] = biological target: human RORγt LBD fused to the DNA binding domain of the GAL4 protein (Homo sapiens (Human), UniProt P51449); experiment: RORγt (LBD) reporter assay in HEK293T cells; format: cell-based; parameters: RORγt (LBD) Reporter Assay, % inhibition: dose or concentration left out as unconfirmed
[3] = biological target: human RORγt ligand binding domain (RORγt LBD) (Homo sapiens (Human), UniProt P51449); experiment: RORγt ThermoFluor assay (thermal shift, binding affinity Kd); conditions: read-out: ThermoFluor Assay, Kd
Sequence of human RORγt ligand binding domain (RORγt LBD) (P51449 other isoform, or with tags, fused parts or gaps): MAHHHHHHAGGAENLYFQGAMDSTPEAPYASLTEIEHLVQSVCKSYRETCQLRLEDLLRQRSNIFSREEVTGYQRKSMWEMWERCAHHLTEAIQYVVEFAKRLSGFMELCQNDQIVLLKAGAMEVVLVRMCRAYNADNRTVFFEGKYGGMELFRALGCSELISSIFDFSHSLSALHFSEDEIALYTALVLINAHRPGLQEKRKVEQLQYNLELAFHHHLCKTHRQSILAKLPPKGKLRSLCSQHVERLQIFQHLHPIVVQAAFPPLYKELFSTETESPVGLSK

Sequence of human RORγt LBD fused to the DNA binding domain of the GAL4 protein (P51449 258-518): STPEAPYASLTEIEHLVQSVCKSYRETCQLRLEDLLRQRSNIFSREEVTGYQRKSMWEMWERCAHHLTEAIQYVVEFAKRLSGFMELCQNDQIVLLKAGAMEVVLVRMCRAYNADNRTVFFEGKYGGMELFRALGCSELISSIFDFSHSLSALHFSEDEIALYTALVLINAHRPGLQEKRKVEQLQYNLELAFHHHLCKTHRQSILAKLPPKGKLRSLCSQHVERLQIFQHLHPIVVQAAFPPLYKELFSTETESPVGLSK

IC50 ([1]; Homo sapiens, CD4+ T): 0.0076 µM
RORγt (LBD) Reporter Assay, % inhibition @ 6 μM [2]: 100%
SMILES: COc1nc2ccc(C(O)(c3ccnc(C(F)(F)F)c3)c3cncn3C)cc2c(Cl)c1CN1CCC(C(F)(F)F)CC1 (single isomer, unassigned) [Example 100c, (4-Chloro-2-methoxy-3-((4-(trifluoromethyl)piperidin-1-yl)methyl)quinolin-6-yl)(1-methyl-1H-imidazol-5-yl)(2-(trifluoromethyl)pyridin-4-yl)methanol]

IC50 ([1]; Homo sapiens, CD4+ T): 0.37 µM
RORγt (LBD) Reporter Assay, % inhibition [2]: 100%
SMILES: COc1nc2ccc(C(O)(c3ccc(C)nc3C)c3cnnn3C)cc2c(Cl)c1CC(F)(F)F (single isomer, unassigned) [Example 143c, [4-Chloro-2-methoxy-3-(2,2,2-trifluoroethyl)quinolin-6-yl](2,6-dimethylpyridin-3-yl)(1-methyl-1H-1,2,3-triazol-5-yl)methanol]

SMILES: Cn1cncc1C(O)(c1ccc(C(F)(F)F)nc1)c1ccc2nc(N3CCC3)c(OCC3CC3)c(Cl)c2c1 (single isomer, unassigned) [Example 87c, [2-Azetidin-1-yl-4-chloro-3-(cyclopropylmethoxy)quinolin-6-yl](1-methyl-1H-imidazol-5-yl)[6-(trifluoromethyl)pyridin-3-yl]methanol]
IC50 ([1]; Homo sapiens): 0.12 µM

SMILES: COc1nc2ccc(C(O)(c3ccc(C(F)(F)F)nc3)c3cncn3C)cc2c(Cl)c1OC(C)C (single isomer, unassigned) [Example 95b, [4-Chloro-2-methoxy-3-(1-methylethoxy)quinolin-6-yl](1-methyl-1H-imidazol-5-yl)[6-(trifluoromethyl)pyridin-3-yl]methanol]
IC50 ([1]; Homo sapiens): 0.061 µM

IC50 [1]: > 6 µM
IC50 [2]: > 6 µM
RORγt (LBD) Reporter Assay, % inhibition @ 6 μM [2]: 42%
Kd [3]: 0.009 µM
SMILES: COc1nc2ccc([C@@](O)(c3ccccc3)C3CCN(C(C)=O)CC3)cc2c(Cl)c1CC1CCOCC1 [Example 4b]

IC50 [1]: 0.035 µM
SMILES: COc1nc2ccc(C(O)(c3cnc(C)n3C)C3CN(C(C)=O)C3)cc2c(Cl)c1CN1CCC(C(F)(F)F)CC1 (single isomer, unassigned) [Example 124c, 1-(3-((4-Chloro-2-methoxy-3-((4-(trifluoromethyl)piperidin-1-yl)methyl)quinolin-6-yl)(1,2-dimethyl-1H-imidazol-5-yl)(hydroxy)methyl)azetidin-1-yl)ethanone]

SMILES: CC(C)Oc1c(N2CCC2)nc2ccc(C(O)(c3ccc(Cl)cc3)c3cncn3C)cc2c1Cl (single isomer, unassigned) [Example 94c, [2-Azetidin-1-yl-4-chloro-3-(1-methylethoxy)quinolin-6-yl](4-chlorophenyl)(1-methyl-1H-imidazol-5-yl)methanol]
IC50 ([1]; Homo sapiens): 0.38 µM

IC50 [1]: 0.0014 µM
RORγt (LBD) Reporter Assay, % inhibition @ 6 μM [2]: 100%
SMILES: COc1nc2ccc(C(O)(c3cnnn3C)c3cnc(C)n3C)cc2c(Cl)c1CN1CCC(C(F)(F)F)CC1 (single isomer, unassigned) [Example 106c, (4-Chloro-2-methoxy-3-((4-(trifluoromethyl)piperidin-1-yl)methyl)quinolin-6-yl)(1,2-dimethyl-1H-imidazol-5-yl)(1-methyl-1H-1,2,3-triazol-5-yl)methanol]

SMILES: Cn1cncc1C(O)(c1ccc(C(F)(F)F)nc1)c1ccc2nc(N3CCC3)c(OCC(F)(F)F)c(Cl)c2c1 (single isomer, unassigned) [Example 89c, [2-Azetidin-1-yl-4-chloro-3-(2,2,2-trifluoroethoxy)quinolin-6-yl](1-methyl-1H-imidazol-5-yl)[6-(trifluoromethyl)pyridin-3-yl]methanol]
IC50 ([1]; Homo sapiens): 0.079 µM

SMILES: COc1nc2ccc(C(O)(c3ccc(Cl)cc3)c3cncn3C)cc2c(Cl)c1OCC(F)(F)F (single isomer, unassigned) [Example 86c, [4-Chloro-2-methoxy-3-(2,2,2-trifluoroethoxy)quinolin-6-yl](4-chlorophenyl)(1-methyl-1H-imidazol-5-yl)methanol]
IC50 ([1]; Homo sapiens): 0.021 µM

SMILES: CCOC(=O)c1c(C(F)(F)F)nc2ccc(C(O)(c3cccnc3)c3cccnc3)cc2c1C(F)(F)F [Example 8, Ethyl 6-(hydroxydi(pyridin-3-yl)methyl)-2,4-bis(trifluoromethyl)quinoline-3-carboxylate.TFA]
IC50 ([1]; Homo sapiens): 0.2 µM

SMILES: COc1nc2ccc(C(O)(c3cnc(C)n3C)c3cnc(C)n3C)cc2c(Cl)c1CN1CCC(C(F)(F)F)CC1 [Example 111, (4-Chloro-2-methoxy-3-((4-(trifluoromethyl)piperidin-1-yl)methyl)quinolin-6-yl)bis(1,2-dimethyl-1H-imidazol-5-yl)methanol]
IC50 ([1]; Homo sapiens): 0.017 µM
